Values after ≈ are worked out from the molar mass of the structure shown.
Assays:
[1] = Half life in rat at 5 mg/kg, po; type: ADME, organism-based; conditions: in vivo
[2] = Volume of distribution at steady state in rat at 1 mg/kg, iv; type: ADME, organism-based; conditions: in vivo, read-out: Vdss
[3] = Equilibrium aqueous solubility of the compound at pH 7; type: physicochemical
[4] = Cmax in rat at 5 mg/kg, po; type: ADME, organism-based; design: dose 5 mg/kg, route oral; conditions: in vivo
[5] = Clearance in rat at 1 mg/kg, iv; type: ADME, organism-based; conditions: in vivo
[6] = Half life in rat at 1 mg/kg, iv; type: ADME, organism-based; conditions: in vivo
[7] = Oral bioavailability in rat at 5 mg/kg; conditions: in vivo
[8] = Equilibrium aqueous solubility of the compound at pH 2; type: physicochemical
[9] = target: T1, Nuclear receptor ROR-gamma (Homo sapiens) (UniProt P51449); assay: Inverse agonist activity at GAL4-DNA binding domain-fused human full length RORgammat expressed in pGL4.31 transfected HEK293T cells assessed as inhibition of RORGgammat driven transcriptional activity at 2 uM after 24 hrs by luciferase reporter gene assay relative to control; type: cell-based
T1 sequence (whole entry): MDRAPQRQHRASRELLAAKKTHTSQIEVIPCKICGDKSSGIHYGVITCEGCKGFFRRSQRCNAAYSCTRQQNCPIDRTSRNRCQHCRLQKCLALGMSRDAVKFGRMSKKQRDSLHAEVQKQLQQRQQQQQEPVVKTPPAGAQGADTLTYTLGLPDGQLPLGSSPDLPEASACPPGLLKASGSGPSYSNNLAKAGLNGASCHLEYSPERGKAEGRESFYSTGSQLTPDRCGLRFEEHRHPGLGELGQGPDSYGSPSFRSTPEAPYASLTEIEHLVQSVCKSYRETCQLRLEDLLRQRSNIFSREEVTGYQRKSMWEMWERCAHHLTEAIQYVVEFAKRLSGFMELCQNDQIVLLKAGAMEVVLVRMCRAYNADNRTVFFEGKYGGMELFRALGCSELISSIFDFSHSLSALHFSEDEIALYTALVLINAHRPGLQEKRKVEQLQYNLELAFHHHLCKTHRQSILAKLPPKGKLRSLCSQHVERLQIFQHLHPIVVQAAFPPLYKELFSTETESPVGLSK

[10] = in vitro; conditions: rat, liver microsomes
[11] = in vitro; conditions: human, liver microsomes
[12] = target: T2, Nuclear receptor ROR-gamma (Homo sapiens, UniProt P51449)
T2 sequence (P51449 whole entry): T1 sequence (whole entry)

[13] = target: T1, Nuclear receptor ROR-gamma (Homo sapiens); assay: Inverse agonist activity at GAL4-DNA binding domain-fused human full length RORgammat expressed in pGL4.31 transfected HEK293T cells assessed as inhibition of RORGgammat driven transcriptional activity at 3 uM after 24 hrs by dual-luciferase reporter gene assay relative to control; type: cell-based
[14] = target: T1, Nuclear receptor ROR-gamma (Homo sapiens); assay: Inverse agonist activity at GAL4-DNA binding domain-fused human RORgammat LBD expressed in pGL4.31 transfected HEK293T cells assessed as inhibition of RORGgammat driven transcriptional activity at 1 uM after 24 hrs by dual-luciferase reporter gene assay relative to control; type: cell-based

| SMILES | solubility thermodynamic [3] | solubility thermodynamic [8] | further results |
| --- | --- | --- | --- |
| COc1nc2ccc(C(O)(c3ccnc(C(F)(F)F)c3)c3cnnn3C)cc2c(Cl)c1CN1CCC(C(F)(F)F)CC1 (stereo not given) | < 4 µM | > 400 µM | inhibition [9]: 100% |
| COc1nc2ccc(C(O)(c3ccc(C)nc3C)c3cnnn3C)cc2c(Cl)c1CC1CC1 (stereo not given) | < 1 µM | > 400 µM | – |
| COc1nc2ccc(C(O)(c3ccc(C)nc3C)c3cnnn3C)cc2c(Cl)c1CC1CCS(=O)(=O)CC1 (stereo not given) | 13 µM (≈ 7.23 µg/mL) | 387 µM (≈ 215 µg/mL) | hepatic extraction ratio [10]: 0.7; hepatic extraction ratio [11]: 0.9; IC50 [12]: 280 nM |
| COc1nc2ccc(C(O)(c3ccc(C)nc3C)c3cnnn3C)cc2c(Cl)c1C(=O)N1CCC(C(F)(F)F)CC1 (stereo not given) | 60 µM (≈ 35.3 µg/mL) | > 400 µM | inhibition [13]: 66%; hepatic extraction ratio [10]: 0.8; hepatic extraction ratio [11]: 0.8; IC50 [12]: 386 nM |
| COc1nc2ccc(C(O)(c3ccc(C)nc3C)c3cnnn3C)cc2c(Cl)c1CN1CCC(F)(F)CC1 (stereo not given) | < 4 µM | > 400 µM | – |
| COc1nc2ccc(C(O)(c3cnnn3C)c3cnc(C)n3C)cc2c(Cl)c1CN1CCC(C(F)(F)F)CC1 (stereo not given) | 31 µM (≈ 17.5 µg/mL) | > 400 µM | – |
| COc1nc2ccc(C(O)(c3ccc(C)nc3C)c3cnnn3C)cc2c(Cl)c1C (stereo not given) | < 4 µM | > 400 µM | – |
| COc1nc2ccc(C(O)(c3cc(C)nc(C)c3)c3cnnn3C)cc2c(Cl)c1CN1CCC(C(F)(F)F)CC1 (stereo not given) | < 1 µM | > 400 µM | – |
| COc1nc2ccc(C(O)(c3ccc(C)nc3C)c3cnnn3C)cc2c(Cl)c1CC(F)(F)F (stereo not given) | < 4 µM | 395 µM (≈ 194 µg/mL) | – |
| COc1nc2ccc(C(O)(c3ccc(C)nc3C)c3cnnn3C)cc2c(Cl)c1CC(C)C (stereo not given) | < 1 µM | > 400 µM | – |
| COc1nc2ccc(C(O)(c3ccc(C)nc3C)c3cnnn3C)cc2c(Cl)c1CC1CCC(F)(F)CC1 (stereo not given) | < 1 µM | > 400 µM | – |
| COc1nc2ccc(C(O)(c3ccc(C)nc3C)c3cnnn3C)cc2c(Cl)c1OCc1ncccn1 (stereo not given) | 336 µM (≈ 174 µg/mL) | > 400 µM | – |
| COc1nc2ccc(C(O)(c3ccc(Cl)cc3)c3cncn3C)cc2c(Cl)c1Cc1ccc(-n2cccn2)cc1 (stereo not given) | < 1 µM | < 1 µM | half-life [1]: 5.6 h; Vd [2]: 4.3 L/kg; Cmax [4]: 262 ng/mL; clearance [5]: 11.5 mL/min/kg; half-life [6]: 5.6 h; bioavailability [7]: 42% |
| COc1nc2ccc(C(O)(c3ccc(C)nc3C)c3cnnn3C)cc2c(Cl)c1OC(C)C (stereo not given) | < 1 µM | > 400 µM | – |

Now from value to molecule, other results behind:

| solubility thermodynamic [3] | solubility thermodynamic [8] | SMILES | further results |
| --- | --- | --- | --- |
| < 1 µM | > 400 µM | COc1nc2ccc([C@@](O)(c3ccc(C(F)(F)F)nc3)c3cncn3C)cc2c(Cl)c1CN1CCC(C(F)(F)F)CC1 | half-life [1]: 8.5 h; Vd [2]: 5.7 L/kg; Cmax [4]: 553 ng/mL; clearance [5]: 7.9 mL/min/kg; half-life [6]: 9.1 h; bioavailability [7]: 77% |
| 30 µM (≈ 17.2 µg/mL) | > 400 µM | COc1nc2ccc(C(O)(c3ccc(C)nc3C)c3cnnn3C)cc2c(Cl)c1CN1CCC(n2cccn2)CC1 (stereo not given) | – |
| < 1 µM | > 400 µM | COc1nc2ccc(C(O)(c3ccnc(C(F)(F)F)c3)c3cncn3C)cc2c(Cl)c1CN1CCC(C(F)(F)F)CC1 (stereo not given) | – |
| < 4 µM | > 400 µM | COc1nc2ccc([C@](O)(c3ccnc(C(F)(F)F)c3)c3cnc(C)n3C)cc2c(Cl)c1CN1CCC(C(F)(F)F)CC1 | inhibition [9]: 101% |
| < 4 µM | > 400 µM | COc1nc2ccc(C(O)(c3ccc(C)nc3C)c3cnnn3C)cc2c(Cl)c1OCc1nccs1 (stereo not given) | – |
| < 1 µM | > 400 µM | COc1nc2ccc(C(O)(c3ccc(C)nc3C)c3cnnn3C)cc2c(Cl)c1OCC1CC1 (stereo not given) | – |
| < 4 µM | > 400 µM | COc1nc2ccc(C(O)(c3ccc(C(F)(F)F)nc3)C3CN(C(C)=O)C3)cc2c(Cl)c1CN1CCC(C(F)(F)F)CC1 (stereo not given) | inhibition [9]: 94% |
| < 1 µM | > 400 µM | COc1nc2ccc(C(O)(c3ccc(C)nc3C)c3cnnn3C)cc2c(Cl)c1CN1CCC(C(F)(F)F)CC1 (stereo not given) | – |
| 8 µM (≈ 4.38 µg/mL) | > 400 µM | COc1nc2ccc(C(O)(c3ccc(C)nc3C)c3cnnn3C)cc2c(Cl)c1CN1CC(C(F)(F)F)C1 (stereo not given) | – |
| < 4 µM | 273 µM (≈ 130 µg/mL) | COc1nc2ccc(C(O)(c3ccc(C)nc3C)c3cnnn3C)cc2c(Cl)c1C1CCCC1 (stereo not given) | – |
| 41 µM (≈ 20.9 µg/mL) | > 400 µM | COc1nc2ccc(C(O)(c3ccc(C)nc3C)c3cnnn3C)cc2c(Cl)c1OC1CCOCC1 (stereo not given) | – |
| 100 µM (≈ 52.5 µg/mL) | > 400 µM | COc1nc2ccc(C(O)(c3ccc(C)nc3C)c3cnnn3C)cc2c(Cl)c1CN1CCC(F)CC1 (stereo not given) | – |
| > 400 µM | > 400 µM | COc1nc2ccc(C(O)(c3cnc(C)n3C)C3CN(C(C)=O)C3)cc2c(Cl)c1CN1CCC(C(F)(F)F)CC1 (stereo not given) | – |
| 283 µM (≈ 160 µg/mL) | > 400 µM | COc1nc2ccc(C(O)(c3cnc(C)n3C)C3CCOCC3)cc2c(Cl)c1CN1CCC(C(F)(F)F)CC1 (stereo not given) | – |
| < 4 µM | 371 µM (≈ 191 µg/mL) | COc1nc2ccc(C(O)(c3ccc(C)nc3C)c3cnnn3C)cc2c(Cl)c1OCC1CC1(F)F (stereo not given) | – |
| 4 to 7 µM (≈ 2.31 to 4.04 µg/mL) | > 400 µM | COc1nc2ccc(C(O)(c3cnc(C)n3C)c3cnc(C)n3C)cc2c(Cl)c1CN1CCC(C(F)(F)F)CC1 | – |
| < 1 µM | 202 µM (≈ 115 µg/mL) | COc1nc2ccc(C(O)(c3ccc(C)nc3C)c3cnnn3C)cc2c(Cl)c1Cc1ccc(C(F)(F)F)cc1 (stereo not given) | inhibition [14]: 100% |
